Measured values published in ChEMBL document CHEMBL1124550, “Replacement of the 3'-CH group by nitrogen in the carbocyclic analogue of thymidine” (J Med Chem, 1989).
pIC50: −log10 of the molar value.

Tests used:
MCF7 = assay: Antitumor activity against breast carcinoma cell line (MCF-7M); assay type: functional, cell-based; details: Homo sapiens
[1] = system: Human immunodeficiency virus 1; assay: Antiviral activity against Human immunodeficiency virus 1 (HIV-1) up to 100 uM concentration; inactive; assay type: functional, organism-based
Human alphaherpesvirus 1 = assay: Antiviral activity against Herpes simplex virus type 1 (HSV-1) up to 100 uM concentration; inactive; assay type: functional, organism-based
HT-29 = assay: Antitumor activity against colon carcinoma cell line (HT-29); assay type: functional, cell-based; details: Homo sapiens
SK-MES-1 = assay: Antitumor activity against lung carcinoma cell line (SK-MES-1); assay type: functional, cell-based; details: Homo sapiens

Row | Structure (SMILES) | pIC50 (MCF7) | IC50 [1] | IC50 (Human alphaherpesvirus 1) | pIC50 (HT-29) | pIC50 (SK-MES-1)
1 | Cc1cn([C@@H]2C[C@H](CO)N(O)C2)c(=O)[nH]c1=O | 7.10 | Not Active | Not Active | 4.85 | 5.16
2 | Cc1cn(C2C[C@@H](CO)N(C=O)C2)c(=O)[nH]c1=O (some centres undefined) |  | Not Active | Not Active |  | 
3 | COC(=O)N1CC(n2cc(C)c(=O)[nH]c2=O)C[C@H]1CO (some centres undefined) |  | Not Active | Not Active |  | 
4 | Cc1cn([C@@H]2C[C@H](CO)N(N=O)C2)c(=O)[nH]c1=O |  | Not Active | Not Active |  | 
5 | Cc1cn(C2C[C@@H](CO)N(C#N)C2)c(=O)[nH]c1=O (some centres undefined) |  | Not Active | Not Active |  | 
6 | O=c1[nH]cc(F)c(=O)[nH]1 [FLUOROURACIL] |  |  |  | 6.82 | 6.51
7 | Cc1cn(C2C[C@@H](CO)N(CCC#N)C2)c(=O)[nH]c1=O (some centres undefined) |  | Not Active | Not Active |  | 
8 | Cc1cn(C2CNC(CO)C2)c(=O)[nH]c1=O (centres undefined) |  | Not Active | Not Active |  | 
